{"source": "patent US8962673B2", "about": "“Use of melatonin for treating and/or preventing mucositis” (Universidad de Granada, priority 2011, dated 2015)", "key": {"[1]": {"assay": "Melatonin levels in rat tongue mitochondria", "type": "in vivo", "conditions": "irradiated rats; parenteral (i.p.) 45 mg a day", "from_the_text": "(§1) The animals used in experiments were rats weighing 280 g, and they were subjected to ionizing radiations under controlled conditions in the Experimental Radiology Unit at the Biomedical Research Center in the University of Granada. The animals were subjected to full exposure of 50 grays (Gy). The irradiation dose used each day was 10 Gy administered at 100.75 cGy/min, 210 kilovolts (kV) and 12 milliamperes (mA), and placing the animal 40 cm away from the radiation source.\n(§2) The different formulations were applied to the animals as follows. A topical application was applied in the oral cavity before irradiation, another one after, and successive applications were applied every 8 hours for 21 days. […]\n(§3) […]"}, "[2]": {"tested_on": "fibrosis and angiogenesis between the muscle fibers of the tongue", "assay": "Histology of rat tongue (hematoxylin-eosin, Masson Goldner's trichrome)", "type": "in vivo", "conditions": "irradiated rats treated with melatonin (both treatments: 3% gel topical and parenteral) versus irradiated animals", "from_the_text": "as §1, §2, §3"}, "[3]": {"tested_on": "glutathione reductase (GRd)", "assay": "Activity and expression of glutathione reductase in rat tongue mitochondria", "type": "in vivo", "conditions": "irradiated rats; i.p. 45 mg a day for 21 days", "description": "(§4) For topical administration in the oral cavity, the composition used was a hydrogel (gel) that comprised 1%, 3% or 5% melatonin (1, 3 or 5 grams of melatonin in 100 ml of the final volume of the composition, respectively) and in which 20% polyethylene and polypropylene copolymers were used as a gelling substance. Pluronic® F127 (poloxamer) was used as the polyethylene and polypropylene copolymers. 0.3% sodium benzoate was used as a preservative. 0.5% sweet orange essence was used. All the components used were acquired from FAGRON IBERICA, S.A.U., reference numbers: melatonin, 33457-27; Pluronic® F127, 33353-SP; sodium benzoate, 31360-12; orange essence, 30620-08. The chemical structure of melatonin is shown below: […]\nas §3"}, "[4]": {"tested_on": "glutathione peroxidase (GPx)", "assay": "Activity and expression of glutathione peroxidase in rat tongue mitochondria", "type": "in vivo", "conditions": "irradiated rats", "description": "as §4, §3"}, "mitochondria": {"tested_on": "mitochondria", "assay": "Electron microscopy of rat tongue mitochondria", "type": "in vivo", "conditions": "irradiated rats; parenteral route", "from_the_text": "as §1, §2, §3"}, "[5]": {"tested_on": "mitochondrial respiratory chain complexes CI, CIII, CIV and CV", "assay": "Expression of mitochondrial respiratory chain complexes in rat tongue by Western blot", "type": "in vivo", "conditions": "irradiated rats; i.p. 45 mg a day for 21 days", "from_the_text": "as §1, §2, §3"}, "glutathione": {"tested_on": "glutathione", "assay": "Glutathione levels (GSH, GSSG, GSSG/GSH) in tongue mitochondria of irradiated rats", "type": "in vivo, rat", "conditions": "i.p. 45 mg a day for 21 days, compared with 3% gel topical", "description": "as §4, §3"}, "[6]": {"tested_on": "mucositis caused by radiotherapy", "assay": "Macroscopic appearance of rat tongue / mucositis after irradiation", "type": "in vivo", "conditions": "irradiated rats", "description": "For topical administration in the oral cavity, the composition used was a hydrogel (gel) that comprised 1%, 3% or 5% melatonin (1, 3 or 5 grams of melatonin in 100 ml of the final volume of the composition, respectively) and in which 20% polyethylene and polypropylene copolymers were used as a gelling substance. Pluronic® F127 (poloxamer) was used as the polyethylene and polypropylene copolymers. 0.3% sodium benzoate was used as a preservative. 0.5% sweet orange essence was used. All the components used were acquired from FAGRON IBERICA, S.A.U., reference numbers: melatonin, 33457-27; Pluronic® F127, 33353-SP; sodium benzoate, 31360-12; orange essence, 30620-08. The chemical structure of melatonin is shown below:\nas §1\nThe different formulations were applied to the animals as follows. A topical application was applied in the oral cavity before irradiation, another one after, and successive applications were applied every 8 hours for 21 days. […] The formulations used in the animals used in experiments were as follows: Pluronic F-127 gel with 1%, 3% or 5% melatonin (1, 3 or 5 grams of melatonin/100 ml gel, respectively), applied three times a day topically in the oral cavity at a volume of 500 μl/each time, giving a total of 1.5 ml/day. Topical application in the oral cavity means that the animals ingest the gel applied in the buccal cavity.\nThe experiments were also conducted by administering to the animals the same melatonin concentration as that used with the 3% w/v hydrogel, but by intraperitoneal route, to see if plasma melatonin could reduce mucositis or if it is necessary to apply said molecule by topical route. For the parenteral route, an isotonic solution that comprised 70% v/v (volume/volume) of isotonic saline solution and 30% v/v of propylene glycol, measured in relation to the total volume of the solution, was used. A daily dose of 45 mg of melatonin was injected for 21 days. The animals were sacrificed 21 days after starting irradiation, like the animals treated with melatonin gel applied by topical route in the oral cavity."}, "[7]": {"conditions": "in vivo; cited from earlier work"}}, "note": "Entries after “also recorded” stand apart in the source; their conditions may differ."}
{"molecule": "COc1ccc2[nH]cc(CCNC(C)=O)c2c1", "note": "[melatonin, N-acetyl-5-methoxytryptamine]", "values": [{"measurement": "melatonin levels in the tongue", "setting": "[1]", "result": "not restored"}, {"measurement": "fibrosis and angiogenesis between the muscle fibers of the tongue", "setting": "[2]", "result": "decrease in fibrosis and in angiogenesis"}, {"measurement": "activity and expression of GRd", "setting": "[3]", "result": "unable to restore the enzyme"}, {"measurement": "activity and expression of GPx", "setting": "[4]; 3% w/v gel topical in the oral cavity, 45 mg a day", "result": "partially counteract the effect of irradiation"}, {"measurement": "activity and expression of GPx", "setting": "[4]; i.p. 45 mg a day for 21 days", "result": "partially counteract the effect of irradiation"}, {"measurement": "mitochondrial damage by electron microscopy (broken mitochondria)", "setting": "mitochondria", "result": "broken mitochondria are observed"}, {"measurement": "expression of complex V or ATP synthase", "setting": "[5]", "result": "completely unable to restore the expression of complex V"}, {"measurement": "GSSG/GSH ratio in tongue mitochondria", "setting": "glutathione", "result": "higher GSSG/GSH ratio"}, {"measurement": "restoring GSH and reducing GSSG in tongue mitochondria", "setting": "glutathione", "result": "lower efficacy"}, {"measurement": "minimum effective dose for treating mucositis, daily dose", "setting": "[6]; 3% gel applied three times a day, 500 μl in each application", "result": 45, "unit": "mg"}, {"measurement": "macroscopic tongue lesions (morphological appearance of the tongue)", "setting": "[6]; 3% w/v gel, topical application in the oral cavity", "result": "completely normalizes the morphological appearance of the tongue"}, {"measurement": "minimum effective dose for treating mucositis, melatonin concentration in the gel", "setting": "[6]; gel applied three times a day, 500 μl in each application", "result": 3, "unit": "%"}, {"measurement": "mucositis caused by radiotherapy (macroscopic tongue lesions)", "setting": "[6]; gel topical in the oral cavity, three times a day, 21 days", "result": "complete prevention of mucositis"}, {"measurement": "macroscopic tongue lesions / mucositis", "setting": "[6]; parenteral (i.p.) 45 mg a day for 21 days", "result": "unable to restore tongue lesions after irradiation; also recorded: no benefit whatsoever"}, {"measurement": "half-life", "setting": "[7]", "result": 30, "unit": "min"}]}
